Laboratory results taken from patent publication US12239643B2, “Therapeutic agent for inflammatory diseases, autoimmune diseases, fibrotic diseases, and cancer diseases” (MEIJI SEIKA PHARMA CO., LTD., priority 2018, dated 2025).

System: PDE4
Assay: Evaluation of PDE4 inhibitory activity, scintillation proximity assay
Assay type: biochemical
Settings: scintillation proximity assay; read-out: PDE4 Inhibitory Activity (Evaluation 1; concentration for the inhibition rate of 50%)
Method in brief: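 SPA with [2,8-3H]-cAMP and diluted PDE4 enzyme preparation in 50 mM Tris-HCl pH 7.4, 8.3 mM MgCl2, 1.7 mM EGTA, 3 mg/mL BSA, 120 min at room temperature. Product captured on ZnSO4-containing YSi-SPA beads, scintillation counted; IC50 from inhibition curves vs DMSO control and no-enzyme blank.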

Compound | IC50 [µM]
CCOC(c1ccc(-c2nccs2)c2oc(N3CC4CCC(C3)N4)nc12)C(F)(F)F (centres unmarked) [Example 220, 2-(3,8-Diazabicyclo[3.2.1]octan-3-yl)-4-(1-ethoxy-2,2,2-trifluoroethyl)-7-(thiazol-2-yl)benzo[d]oxazole] | < 0.1
FC(F)(F)COC(c1ccc(-c2nccs2)c2oc(N3CC4CCC(C3)N4)nc12)C(F)(F)F (centres unmarked) [Example 221, 2-(3,8-Diazabicyclo[3.2.1]octan-3-yl)-7-(thiazol-2-yl)-4-(2,2,2-trifluoro-1-(2,2,2-trifluoroethoxy)ethyl)benzo[d]oxazole] | < 0.1
COC(c1ccc(-c2nccs2)c2oc(N3CC4CCC(C3)N4)nc12)C(F)(F)F (centres unmarked) [Example 222, 2-(3,8-Diazabicyclo[3.2.1]octan-3-yl)-7-(thiazol-2-yl)-4-(2,2,2-trifluoro-1-methoxyethyl)benzo[d]oxazole] | < 0.1
FC(F)(F)COC(c1ccc(-c2nccs2)c2oc(N3CC4CC(C3)N4)nc12)C(F)(F)F (centres unmarked) [Example 223, 2-(3,6-Diazabicyclo[3.1.1]heptan-3-yl)-7-(thiazol-2-yl)-4-(2,2,2-trifluoro-1-(2,2,2-trifluoroethoxy)ethyl)benzo[d]oxazole] | < 0.1
CCOC(c1ccc(-c2nccs2)c2oc(N3CC4CC(C3)N4)nc12)C(F)(F)F (centres unmarked) [Example 224, 2-(3,6-Diazabicyclo[3.1.1]heptan-3-yl)-4-(1-ethoxy-2,2,2-trifluoroethyl)-7-(thiazol-2-yl)benzo[d]oxazole] | < 0.1
OCCOC(c1ccc(-c2nccs2)c2oc(N3CC4CCC(C3)N4)nc12)C(F)(F)F (centres unmarked) [Example 225, 2-(1-(2-(3,8-Diazabicyclo[3.2.1]octan-3-yl)-7-(thiazol-2-yl)benzo[d]oxazol-4-yl)-2,2,2-trifluoroethoxy)ethan-1-ol] | < 0.1
N#CCOC(c1ccc(-c2nccs2)c2oc(N3CC4CC(C3)N4)nc12)C(F)(F)F (centres unmarked) [Example 226, 2-(1-(2-(3,6-Diazabicyclo[3.1.1]heptan-3-yl)-7-(thiazol-2-yl)benzo[d]oxazol-4-yl)-2,2,2-trifluoroethoxy)acetonitrile] | < 0.1
OCCOC(c1ccc(-c2nccs2)c2oc(N3CC4CC(C3)N4)nc12)C(F)(F)F (centres unmarked) [Example 227, 2-(1-(2-(3,6-Diazabicyclo[3.1.1]heptan-3-yl)-7-(thiazol-2-yl)benzo[d]oxazol-4-yl)-2,2,2-trifluoroethoxy)ethan-1-ol] | < 0.1
N#CCOC(c1ccc(-c2nccs2)c2oc(N3CC4CCC(C3)N4)nc12)C(F)(F)F (centres unmarked) [Example 228, 2-(1-(2-(3,8-Diazabicyclo[3.2.1]octan-3-yl)-7-(thiazol-2-yl)benzo[d]oxazol-4-yl)-2,2,2-trifluoroethoxy)acetonitrile] | < 0.1
COCCOC(c1ccc(-c2nccs2)c2oc(N3CC4CC(C3)N4)nc12)C(F)(F)F (centres unmarked) [Example 229, 2-(3,6-Diazabicyclo[3.1.1]heptan-3-yl)-7-(thiazol-2-yl)-4-(2,2,2-trifluoro-1-(2-methoxyethoxy)ethyl)benzo[d]oxazole] | < 0.1
OC1(COC(c2ccc(-c3nccs3)c3oc(N4CC5CC(C4)N5)nc23)C(F)(F)F)CC1 (centres unmarked) [Example 232, 1-((1-(2-(3,6-Diazabicyclo[3.1.1]heptan-3-yl)-7-(thiazol-2-yl)benzo[d]oxazol-4-yl)-2,2,2-trifluoroethoxy)methyl)cyclopropan-1-ol] | < 0.1
OC(O)(c1ccc(-c2nccs2)c2oc(N3CC4CCC(C3)N4)nc12)C(F)(F)F [Example 233, 1-(2-(3,8-Diazabicyclo[3.2.1]octan-3-yl)-7-(thiazol-2-yl)benzo[d]oxazol-4-yl)-2,2,2-trifluoroethane-1,1-diol] | < 0.1
CC(O)(c1ccc(-c2nccs2)c2oc(N3CC4CCC(C3)N4)nc12)C(F)(F)F (centres unmarked) [Example 236, 2-(2-(3,8-Diazabicyclo[3.2.1]octan-3-yl)-7-(thiazol-2-yl)benzo[d]oxazol-4-yl)-1,1,1-trifluoropropan-2-ol] | < 0.1
COC(=O)c1ccc(-c2nccs2)c2oc(N3CC4CCC(C3)N4)nc12 [Example 237, Methyl 2-(3,8-diazabicyclo[3.2.1]octan-3-yl)-7-(thiazol-2-yl)benzo[d]oxazole-4-carboxylate] | < 0.1
O=C(O)c1ccc(-c2nccs2)c2oc(N3CC4CCC(C3)N4)nc12 [Example 238, 2-(3,8-Diazabicyclo[3.2.1]octan-3-yl)-7-(thiazol-2-yl)benzo[d]oxazole-4-carboxylic acid] | < 0.1
CC(O)c1ccc(-c2nccs2)c2oc(N3CC4CCCC(C3)N4)nc12 (centres unmarked) [Example 239, 1-(2-(3,9-Diazabicyclo[3.3.1]nonan-3-yl)-7-(thiazol-2-yl)benzo[d]oxazol-4-yl)ethan-1-ol] | < 0.1
CC(O)c1ccc(-c2nccs2)c2oc(N3CC4CC(C3)N4)nc12 (centres unmarked) [Example 240, 1-(2-(3,6-Diazabicyclo[3.1.1]heptan-3-yl)-7-(thiazol-2-yl)benzo[d]oxazol-4-yl)ethan-1-ol] | < 0.1
COC(C)c1ccc(-c2nccs2)c2oc(N3CC4CC(C3)N4)nc12 (centres unmarked) [Example 241, 2-(3,6-Diazabicyclo[3.1.1]heptan-3-yl)-4-(1-methoxyethyl)-7-(thiazol-2-yl)benzo[d]oxazole] | < 0.1
COC(C)c1ccc(-c2nccs2)c2oc(N3CC4CCC(C3)N4)nc12 (centres unmarked) [Example 242, 2-(3,8-Diazabicyclo[3.2.1]octan-3-yl)-4-(1-methoxyethyl)-7-(thiazol-2-yl)benzo[d]oxazole] | < 0.1
COC(C)c1ccc(-c2nccs2)c2oc(N3CC4CCCC(C3)N4)nc12 (centres unmarked) [Example 243, 2-(3,9-Diazabicyclo[3.3.1]nonan-3-yl)-4-(1-methoxyethyl)-7-(thiazol-2-yl)benzo[d]oxazole] | < 0.1
CC(=O)c1ccc(-c2nccs2)c2oc(N3CC4CC(C3)N4)nc12 [Example 244, 1-(2-(3,6-Diazabicyclo[3.1.1]heptan-3-yl)-7-(thiazol-2-yl)benzo[d]oxazol-4-yl)ethan-1-one] | < 0.1
CC(=O)c1ccc(-c2nccs2)c2oc(N3CC4CCC(C3)N4)nc12 [Example 245, 1-(2-(3,8-Diazabicyclo[3.2.1]octan-3-yl)-7-(thiazol-2-yl)benzo[d]oxazol-4-yl)ethan-1-one] | < 0.1
CC(C)(O)c1ccc(-c2nccs2)c2oc(N3CC4CCC(C3)N4)nc12 [Example 247, 2-(2-(3,8-Diazabicyclo[3.2.1]octan-3-yl)-7-(thiazol-2-yl)benzo[d]oxazol-4-yl)propan-2-ol] | < 0.1
O=C(O)COC(c1ccc(-c2nccs2)c2oc(N3CC4CC(C3)N4)nc12)C(F)(F)F (centres unmarked) [Example 253, 2-(1-(2-(3,6-Diazabicyclo[3.1.1]heptan-3-yl)-7-(thiazol-2-yl)benzo[d]oxazol-4-yl)-2,2,2-trifluoroethoxy)acetic acid] | < 0.1
CC(C)(O)COC(c1ccc(-c2nccs2)c2oc(N3CC4CC(C3)N4)nc12)C(F)(F)F (centres unmarked) [Example 255] | < 0.1
NC(=O)COC(c1ccc(-c2nccs2)c2oc(N3CC4CC(C3)N4)nc12)C(F)(F)F (centres unmarked) [Example 256, 2-(1-(2-(3,6-Diazabicyclo[3.1.1]heptan-3-yl)-7-(thiazol-2-yl)benzo[d]oxazol-4-yl)-2,2,2-trifluoroethoxy)acetamide] | < 0.1
